Data reported in patent publication EP4745135A1 (Gluetacs Therapeutics (Shanghai) Co., Ltd., priority 2023, dated 2025).
Each block holds one compound with its values, some of them ahead of it.

Legend:
IKZF1 = target: T1, IKZF1 (Homo sapiens, UniProt Q13422+Q96SW2); test: Western blot, degradation of substrate protein in hPBMCs; assay type: cell-based
T1 construct: effects of the compounds of the present disclosure on the expression of target proteins in cells; endogenous in cells; host or cells: human PBMCs (Milecell Biotechnologies)

WEE1 = target: T2, WEE1 (Homo sapiens, UniProt P30291+Q96SW2); test: as above; assay type: cell-based
T2 construct: effects of the compounds of the present disclosure on the expression of target proteins in cells; endogenous in cells; host or cells: human PBMCs (Milecell Biotechnologies)

CK1α = target: T3, CK1α (Homo sapiens, UniProt P48729+Q96SW2); test: as above; assay type: cell-based
T3 construct: effects of the compounds of the present disclosure on the expression of target proteins in cells; endogenous in cells; host or cells: human PBMCs (Milecell Biotechnologies)

IKZF3 = target: T4, IKZF3 (Homo sapiens, UniProt Q96SW2+Q9UKT9); test: as above; assay type: cell-based
T4 construct: effects of the compounds of the present disclosure on the expression of target proteins in cells; endogenous in cells; host or cells: human PBMCs (Milecell Biotechnologies)

IKZF2 = target: T5, IKZF2 (Homo sapiens, UniProt Q96SW2+Q9UKS7); test: as above; assay type: cell-based
T5 construct: effects of the compounds of the present disclosure on the expression of target proteins in cells; endogenous in cells; host or cells: human PBMCs (Milecell Biotechnologies)

GSPT1 = test: as above; assay type: cell-based, Human
[1] = test system: Human multiple myeloma peripheral blood B lymphocyte cell (RPMI-8226); test: Tumor cell proliferation inhibition (CellTiter-Meiluncell luminescent cell viability assay); conditions: RPMI-8226, 96 h; for inhibition at 0.01 µM: read-out: Inhibition Rate at 10 nM (%); for inhibition at 0.5 µM: read-out: Inhibition Rate at 500 nM (%)
Experimental: (§1) The tumor cells used herein were cultured in a cell culture medium listed in table 2 at 37°C in an incubator with 5% CO2. Prior to experimentation, all cell lines used were correctly identified by STR profiling, and tested negative for mycoplasma contamination using a mycoplasma detection kit through routine screenings.
(§2) The IC50 values of the compounds of the present disclosure (including the compounds in Table 1 and Examples) were determined using the CellTiter-Meiluncell Luminescent Cell Viability Assay Kit from Dalian Meilun Biotech Co., Ltd. The detailed procedure is as follows: Tumor cells were seeded in 96-well cell culture plates at the densities specified in Table 3. On the following day, the test compounds of the present disclosure were subjected to serial dilution. The dilution can be performed according to one of the following two methods: • (1) The first dilution method: The test compounds of the present disclosure (including the compounds in Table 1 and Examples) were subjected to 5-fold serial dilutions starting from a highest concentration of 2000 µM, resulting in a total of 9 concentrations from high to low (2000, 400, 80, 16, 3.2, 0.64, 0.128, 0.0256, 0.00512 µM). Subsequently, 0.5 µL of the test compound dilution was transferred into the 96-well plate containing the cells, with each well containing 100 µL of cell culture medium. […] Into the 96-well plate, the diluted test compounds and corresponding detection reagents were added, resulting in final test compound concentrations of 500 nM and 10 nM, respectively. The experimental procedure is described below using the diluted 2 µM test compound as an example.
(§3) 0.5 µL of the aforementioned diluted compound of the present disclosure (including the compounds in Table 1 and Examples) was added to the seeded cells in 100 µL of medium, yielding a final test compound concentration of 10 nM. After the cells were treated with the compounds of the present disclosure for a specified period, the cell viability assay reagent was added to the culture medium according to the kit's instructions to determine cell viability. […] All controls were treated using the same procedure as the compounds of the present disclosure. The growth inhibition curves for the compounds of the present disclosure were plotted using Prism GraphPad software, and the IC50 values were calculated therefrom.

[2] = target: T6, human Cereblon WT GST-tagged protein (Homo sapiens, UniProt Q96SW2); test: CRBN-binding affinity, HTRF (CEREBLON BINDING kit); conditions: for inhibition at 0.5 µM: read-out: Inhibition Rate at 0.5 µM (%); for inhibition at 2 µM: read-out: Inhibition Rate at 2 µM (%)
T6 construct: purchased CISBIO 64BDCRBNPEH

[3] = test system: Human myeloid monocytic leukemia cell (MV-4-11); test: Tumor cell proliferation inhibition (CellTiter-Meiluncell luminescent cell viability assay); conditions: MV4-11, 96 h; for inhibition at 0.01 µM: read-out: Inhibition Rate at 10 nM (%); for inhibition at 0.5 µM: read-out: Inhibition Rate at 500 nM (%)
[4] = test system: Human multiple myeloma cell (MM.1S); test: as above; conditions: for inhibition at 0.01 µM / inhibition at 0.5 µM: Homo sapiens, MM1.S, 96 h; for inhibition at 0.01 µM: read-out: Inhibition Rate at 10 nM (%); for inhibition at 0.5 µM: read-out: Inhibition Rate at 500 nM (%)
[5] = test system: Human acute T lymphocytic leukemia cell (Molt4); test: as above; conditions: MOLT-4, 96 h
[6] = test system: Human breast cancer cell (MCF-7); test: as above; conditions: MCF7, 96 h
Experimental: as §1, §2, §3

[7] = Western blot, 24 hours of compound treatment, compounds tested at 50 nM and 500 nM (concentration for the table not stated)
[8] = 24 hours treatment, compounds at 50 nM and 500 nM (concentration behind the class not stated)
[9] = read-out: Inhibition Rate at 10 nM (%)
[10] = read-out: Inhibition Rate at 500 nM (%)

T4 sequence (Q9UKT9 whole entry): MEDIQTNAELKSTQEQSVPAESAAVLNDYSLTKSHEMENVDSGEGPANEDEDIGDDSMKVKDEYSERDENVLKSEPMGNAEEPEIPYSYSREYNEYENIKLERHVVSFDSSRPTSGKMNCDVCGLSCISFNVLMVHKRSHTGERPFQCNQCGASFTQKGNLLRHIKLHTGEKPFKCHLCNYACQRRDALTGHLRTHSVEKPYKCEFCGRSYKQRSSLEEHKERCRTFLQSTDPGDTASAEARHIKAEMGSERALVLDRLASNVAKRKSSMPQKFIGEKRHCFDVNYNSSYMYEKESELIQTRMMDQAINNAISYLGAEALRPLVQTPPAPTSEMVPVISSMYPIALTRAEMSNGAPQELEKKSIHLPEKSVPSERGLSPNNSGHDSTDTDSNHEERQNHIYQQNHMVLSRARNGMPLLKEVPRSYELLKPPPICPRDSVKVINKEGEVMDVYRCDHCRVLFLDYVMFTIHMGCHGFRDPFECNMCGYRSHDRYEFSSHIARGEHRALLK
T4 sequence (Q96SW2 whole entry): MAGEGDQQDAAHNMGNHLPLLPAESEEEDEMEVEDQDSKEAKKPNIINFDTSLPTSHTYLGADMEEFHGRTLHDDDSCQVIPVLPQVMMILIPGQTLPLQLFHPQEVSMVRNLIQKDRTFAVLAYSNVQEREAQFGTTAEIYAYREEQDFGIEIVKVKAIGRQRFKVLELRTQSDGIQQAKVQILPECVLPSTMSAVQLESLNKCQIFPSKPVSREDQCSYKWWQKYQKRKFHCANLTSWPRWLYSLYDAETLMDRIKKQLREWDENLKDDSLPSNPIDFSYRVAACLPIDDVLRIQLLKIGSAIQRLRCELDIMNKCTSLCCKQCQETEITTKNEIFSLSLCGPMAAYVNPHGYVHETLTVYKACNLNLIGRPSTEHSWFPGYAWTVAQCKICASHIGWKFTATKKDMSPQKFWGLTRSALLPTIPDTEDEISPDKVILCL
T4 sequence (Q16531 whole entry partner): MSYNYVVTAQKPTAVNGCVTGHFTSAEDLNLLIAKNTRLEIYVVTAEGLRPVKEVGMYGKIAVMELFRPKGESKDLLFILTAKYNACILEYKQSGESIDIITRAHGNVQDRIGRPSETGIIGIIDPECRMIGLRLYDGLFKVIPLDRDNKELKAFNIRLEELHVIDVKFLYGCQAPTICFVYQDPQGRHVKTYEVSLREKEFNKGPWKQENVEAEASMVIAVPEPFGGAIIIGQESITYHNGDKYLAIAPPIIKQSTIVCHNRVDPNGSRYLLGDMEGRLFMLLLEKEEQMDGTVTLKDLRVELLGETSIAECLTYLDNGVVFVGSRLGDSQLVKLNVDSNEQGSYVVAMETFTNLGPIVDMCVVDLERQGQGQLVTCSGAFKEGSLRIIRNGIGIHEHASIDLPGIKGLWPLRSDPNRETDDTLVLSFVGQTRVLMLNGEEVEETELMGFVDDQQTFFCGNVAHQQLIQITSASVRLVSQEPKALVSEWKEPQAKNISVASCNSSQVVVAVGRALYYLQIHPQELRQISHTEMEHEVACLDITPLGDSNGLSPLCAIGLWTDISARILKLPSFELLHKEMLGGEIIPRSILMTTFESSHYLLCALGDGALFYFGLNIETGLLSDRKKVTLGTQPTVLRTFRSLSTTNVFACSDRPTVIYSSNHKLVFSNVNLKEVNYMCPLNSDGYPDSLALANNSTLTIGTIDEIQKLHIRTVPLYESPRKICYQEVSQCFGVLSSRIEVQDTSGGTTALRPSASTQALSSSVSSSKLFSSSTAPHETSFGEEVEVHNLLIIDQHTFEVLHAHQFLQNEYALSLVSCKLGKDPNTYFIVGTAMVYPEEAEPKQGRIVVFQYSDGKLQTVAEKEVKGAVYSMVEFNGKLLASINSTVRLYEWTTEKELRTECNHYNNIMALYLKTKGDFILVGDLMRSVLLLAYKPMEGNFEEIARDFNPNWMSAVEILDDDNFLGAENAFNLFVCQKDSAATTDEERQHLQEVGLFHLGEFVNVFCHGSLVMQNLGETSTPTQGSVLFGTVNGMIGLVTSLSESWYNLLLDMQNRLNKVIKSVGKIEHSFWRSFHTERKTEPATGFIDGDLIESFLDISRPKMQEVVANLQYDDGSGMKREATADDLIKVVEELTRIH
T3 sequence (P48729 whole entry): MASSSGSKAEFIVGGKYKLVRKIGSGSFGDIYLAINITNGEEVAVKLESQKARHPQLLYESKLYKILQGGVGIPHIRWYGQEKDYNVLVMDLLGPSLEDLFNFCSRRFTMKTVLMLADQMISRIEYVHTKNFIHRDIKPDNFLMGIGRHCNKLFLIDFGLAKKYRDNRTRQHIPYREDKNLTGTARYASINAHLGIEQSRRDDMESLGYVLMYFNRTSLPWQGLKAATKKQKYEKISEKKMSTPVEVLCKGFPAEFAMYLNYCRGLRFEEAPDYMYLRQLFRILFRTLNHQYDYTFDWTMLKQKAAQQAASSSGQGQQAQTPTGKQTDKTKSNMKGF
T3 sequence (Q96SW2 whole entry): as the sequence (Q96SW2 whole entry) above
T3 sequence (Q16531 whole entry partner): as the sequence (Q16531 whole entry partner) above
T5 sequence (Q9UKS7 whole entry): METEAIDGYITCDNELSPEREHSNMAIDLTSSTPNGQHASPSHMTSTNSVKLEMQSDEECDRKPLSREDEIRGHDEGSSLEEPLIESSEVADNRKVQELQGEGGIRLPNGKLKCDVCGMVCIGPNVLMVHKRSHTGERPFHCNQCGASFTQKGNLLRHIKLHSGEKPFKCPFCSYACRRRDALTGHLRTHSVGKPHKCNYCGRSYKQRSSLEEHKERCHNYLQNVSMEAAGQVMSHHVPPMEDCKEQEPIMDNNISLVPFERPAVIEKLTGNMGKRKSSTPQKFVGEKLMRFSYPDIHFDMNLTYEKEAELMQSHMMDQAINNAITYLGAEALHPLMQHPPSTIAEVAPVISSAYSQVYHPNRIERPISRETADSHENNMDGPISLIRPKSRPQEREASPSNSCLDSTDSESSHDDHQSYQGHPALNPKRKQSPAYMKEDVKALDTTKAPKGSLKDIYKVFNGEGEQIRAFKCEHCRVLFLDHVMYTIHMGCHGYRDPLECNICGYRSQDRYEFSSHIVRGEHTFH
T5 sequence (Q96SW2 whole entry): as the sequence (Q96SW2 whole entry) above
T5 sequence (Q16531 whole entry partner): as the sequence (Q16531 whole entry partner) above
T6 sequence (Q96SW2 whole entry): as the sequence (Q96SW2 whole entry) above
T1 sequence (Q13422 whole entry): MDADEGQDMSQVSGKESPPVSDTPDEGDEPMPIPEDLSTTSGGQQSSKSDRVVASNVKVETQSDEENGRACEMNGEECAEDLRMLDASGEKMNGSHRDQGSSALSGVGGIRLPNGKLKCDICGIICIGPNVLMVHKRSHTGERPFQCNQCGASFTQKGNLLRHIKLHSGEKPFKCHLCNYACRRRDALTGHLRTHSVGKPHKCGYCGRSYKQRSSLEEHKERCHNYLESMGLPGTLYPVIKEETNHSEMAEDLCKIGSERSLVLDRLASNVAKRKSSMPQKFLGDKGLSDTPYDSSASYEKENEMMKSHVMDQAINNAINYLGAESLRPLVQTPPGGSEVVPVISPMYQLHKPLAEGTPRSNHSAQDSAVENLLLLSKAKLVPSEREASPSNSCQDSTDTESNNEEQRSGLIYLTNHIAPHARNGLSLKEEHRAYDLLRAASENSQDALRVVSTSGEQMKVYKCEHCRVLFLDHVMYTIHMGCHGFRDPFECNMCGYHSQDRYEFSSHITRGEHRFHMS
T1 sequence (Q96SW2 whole entry): as the sequence (Q96SW2 whole entry) above
T1 sequence (Q16531 whole entry partner): as the sequence (Q16531 whole entry partner) above
T2 sequence (P30291 whole entry): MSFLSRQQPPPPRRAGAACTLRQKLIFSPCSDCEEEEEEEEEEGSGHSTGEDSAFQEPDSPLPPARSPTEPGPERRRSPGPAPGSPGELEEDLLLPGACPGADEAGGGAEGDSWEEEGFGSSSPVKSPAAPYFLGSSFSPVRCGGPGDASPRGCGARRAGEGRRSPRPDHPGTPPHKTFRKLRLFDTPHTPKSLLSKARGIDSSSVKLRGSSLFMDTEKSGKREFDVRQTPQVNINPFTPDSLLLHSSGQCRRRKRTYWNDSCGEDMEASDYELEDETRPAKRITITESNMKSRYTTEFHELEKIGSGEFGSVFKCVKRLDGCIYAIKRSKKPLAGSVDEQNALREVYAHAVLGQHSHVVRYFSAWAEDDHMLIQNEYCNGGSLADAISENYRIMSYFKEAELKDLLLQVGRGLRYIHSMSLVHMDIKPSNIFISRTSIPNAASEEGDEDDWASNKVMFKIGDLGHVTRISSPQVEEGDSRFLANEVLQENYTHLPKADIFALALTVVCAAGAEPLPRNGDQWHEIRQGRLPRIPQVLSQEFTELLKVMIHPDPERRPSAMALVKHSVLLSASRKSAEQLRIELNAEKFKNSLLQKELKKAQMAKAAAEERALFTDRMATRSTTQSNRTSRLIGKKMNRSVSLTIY
T2 sequence (Q96SW2 whole entry): as the sequence (Q96SW2 whole entry) above
T2 sequence (Q16531 whole entry partner): as the sequence (Q16531 whole entry partner) above

Compound: O=C1CCC(N2Cc3c(CN4CCN(CC5=C(c6ccc(F)cc6)CCCC5)CC4)cccc3C2=S)C(=O)N1 (stereo not drawn) [GT-08293, 3-(4-((4-((4'-fluoro-3,4,5,6-tetrahydro-[1,1'-biphenyl]-2-yl)methyl)piperazin-1-yl)methyl)-1-thioxoisoindolin-2-yl)piperidine-2,6-dione]
IKZF 1 substrate protein remaining % (IKZF1; [7]): B (80%< substrate protein remaining %≤ 100%)
Wee1 substrate protein remaining % (WEE1; [7]): A (0% ≤ substrate protein remaining % ≤ 80%)
CK1α substrate protein remaining % (CK1α; [7]): B (80%< substrate protein remaining %≤ 100%)
IKZF3 substrate protein remaining % (IKZF3; [7]): B (80%< substrate protein remaining %≤ 100%)
IKZF2 substrate protein remaining % (IKZF2; [7]): B (80%< substrate protein remaining %≤ 100%)
GSPT1 substrate protein remaining % (GSPT1; [7]): B (80%< substrate protein remaining %≤ 100%)
inhibition at 0.01 µM [1]: 20 to 30%
inhibition at 0.5 µM [1]: 40 to 50%
inhibition at 0.5 µM [2]: 30 to 40%
inhibition at 2 µM [2]: 60 to 80%

Compound: O=C1CCC(N2Cc3cc(CN4CCN(c5cc(Cl)cc(Cl)c5)CC4)ccc3C2=S)C(=O)N1 (stereo not drawn) [GT-08624, 3-(5-((4-(3,5-dichlorophenyl)piperazin-1-yl)methyl)-1-thioxoisoindolin-2-yl)piperidine-2,6-dione]
inhibition at 0.01 µM [3]: 18 to 25%
inhibition at 0.5 µM [3]: 80 to 100%
IKZF 1 substrate protein remaining % (IKZF1; [7]): B (80%< substrate protein remaining %≤ 100%)
Wee1 substrate protein remaining % (WEE1; [7]): B (80%< substrate protein remaining %≤ 100%)
CK1α substrate protein remaining % (CK1α; [7]): B (80%< substrate protein remaining %≤ 100%)
IKZF3 substrate protein remaining % (IKZF3; [7]): B (80%< substrate protein remaining %≤ 100%)
IKZF2 substrate protein remaining % (IKZF2; [7]): B (80%< substrate protein remaining %≤ 100%)
GSPT1 substrate protein remaining % (GSPT1; [7]): A (0% ≤ substrate protein remaining % ≤ 80%)
inhibition at 0.01 µM [4]: 20 to 30%
inhibition at 0.5 µM [4]: 80 to 100%
inhibition at 0.01 µM [1]: 10 to 20%
inhibition at 0.5 µM [1]: 60 to 70%
inhibition at 0.5 µM [2]: 30 to 40%
inhibition at 2 µM [2]: 80 to 100%

Compound: O=C1CCC(N2Cc3c(CN4CCN(C(=O)C5=C(c6ccc(F)cc6)CCCC5)CC4)cccc3C2=S)C(=O)N1 (stereo not drawn) [GT-08294, 3-(4-((4-(4'-fluoro-3,4,5,6-tetrahydro-[1,1'-biphenyl]-2-carbonyl)piperazin-1-yl)methyl)-1-thioxoisoindolin-2-yl)piperidine-2,6-dione]
inhibition at 0.01 µM [3]: 40 to 60%
inhibition at 0.5 µM [3]: 60 to 80%
IKZF 1 substrate protein remaining % (IKZF1; [7]): B (80%< substrate protein remaining %≤ 100%)
Wee1 substrate protein remaining % (WEE1; [7]): B (80%< substrate protein remaining %≤ 100%)
CK1α substrate protein remaining % (CK1α; [7]): A (0% ≤ substrate protein remaining % ≤ 80%)
IKZF3 substrate protein remaining % (IKZF3; [7]): B (80%< substrate protein remaining %≤ 100%)
IKZF2 substrate protein remaining % (IKZF2; [7]): B (80%< substrate protein remaining %≤ 100%)
GSPT1 substrate protein remaining % (GSPT1; [7]): B (80%< substrate protein remaining %≤ 100%)
inhibition at 0.01 µM [1]: 20 to 30%
inhibition at 0.5 µM [1]: 40 to 50%
inhibition at 0.5 µM [2]: 30 to 40%
inhibition at 2 µM [2]: 80 to 100%

Compound: Cn1cc(C2CCN(Cc3ccc4c(c3)CN(C3CCC(=O)NC3=O)C4=S)CC2)c2ccc(F)cc21 (stereo not drawn) [GT-09267, 3-(5-((4-(6-fluoro-1-methyl-1H-indol-3-yl)piperidin-1-yl)methyl)-1-thioxoisoindolin-2-yl)piperidine-2,6-dione]
inhibition at 0.01 µM [3]: 80 to 100%
inhibition at 0.5 µM [3]: 80 to 100%
IKZF 1 substrate protein remaining % (IKZF1; [8]): A (0% ≤ substrate protein remaining % ≤ 80%)
Wee1 substrate protein remaining % (WEE1; [8]): A (0% ≤ substrate protein remaining % ≤ 80%)
CK1α substrate protein remaining % (CK1α; [8]): B (80%< substrate protein remaining %≤ 100%)
IKZF3 substrate protein remaining % (IKZF3; [8]): A (0% ≤ substrate protein remaining % ≤ 80%)
IKZF2 substrate protein remaining % (IKZF2; [8]): A (0% ≤ substrate protein remaining % ≤ 80%)
GSPT1 substrate protein remaining % (GSPT1; [8]): A (0% ≤ substrate protein remaining % ≤ 80%)
inhibition at 0.01 µM [5, 9]: 80 to 100%
inhibition at 0.5 µM [5, 10]: 80 to 100%
inhibition at 0.01 µM [4]: 70 to 80%
inhibition at 0.5 µM [4]: 80 to 100%
inhibition at 0.01 µM [6, 9]: 5 to 10%
inhibition at 0.5 µM [6, 10]: 70 to 80%
inhibition at 0.5 µM [2]: 53 to 60%
inhibition at 2 µM [2]: 80 to 100%

More lines, main results first:

inhibition at 0.5 µM [2]: 40 to 53%
inhibition at 2 µM [2]: 60 to 80%
Compound: O=C1CCC(N2Cc3c(CN4C[C@@H]5C[C@H]4CN5C(c4ccccc4)c4ccccc4)cccc3C2=S)C(=O)N1 (stereo partly drawn) [GT-08207, 3-(4-(((1 S,4S)-5-benzhydryl-2,5-diazabicyclo[2.2.1]heptan-2-yl)methyl)-1-thioxoisoindolin-2-yl)piperidine-2,6-dione]
IKZF 1 substrate protein remaining % (IKZF1; [7]): A (0% ≤ substrate protein remaining % ≤ 80%)
Wee1 substrate protein remaining % (WEE1; [7]): A (0% ≤ substrate protein remaining % ≤ 80%)
CK1α substrate protein remaining % (CK1α; [7]): B (80%< substrate protein remaining %≤ 100%)
IKZF3 substrate protein remaining % (IKZF3; [7]): B (80%< substrate protein remaining %≤ 100%)
IKZF2 substrate protein remaining % (IKZF2; [7]): B (80%< substrate protein remaining %≤ 100%)
GSPT1 substrate protein remaining % (GSPT1; [7]): A (0% ≤ substrate protein remaining % ≤ 80%)
inhibition at 0.01 µM [1]: 50 to 60%
inhibition at 0.5 µM [1]: 60 to 70%

inhibition at 0.5 µM [2]: 40 to 53%
inhibition at 2 µM [2]: 80 to 100%
Compound: O=C1CCC(N2Cc3c(CN4CCN(c5cccc6sccc56)CC4)cccc3C2=S)C(=O)N1 (stereo not drawn) [GT-08364, 3-(4-((4-(benzo[b]thiophen-4-yl)piperazin-1-yl)methyl)-1-thioxoisoindolin-2-yl)piperidine-2,6-dione]
IKZF 1 substrate protein remaining % (IKZF1; [7]): B (80%< substrate protein remaining %≤ 100%)
Wee1 substrate protein remaining % (WEE1; [7]): A (0% ≤ substrate protein remaining % ≤ 80%)
CK1α substrate protein remaining % (CK1α; [7]): B (80%< substrate protein remaining %≤ 100%)
IKZF3 substrate protein remaining % (IKZF3; [7]): B (80%< substrate protein remaining %≤ 100%)
IKZF2 substrate protein remaining % (IKZF2; [7]): B (80%< substrate protein remaining %≤ 100%)
GSPT1 substrate protein remaining % (GSPT1; [7]): A (0% ≤ substrate protein remaining % ≤ 80%)
inhibition at 0.01 µM [4]: 40 to 50%
Inhibition Rate at 500 nM (%) ([4]; MM.1S, 500 nM, 96 hours): la8
inhibition at 0.01 µM [1]: 20 to 30%
inhibition at 0.5 µM [1]: 40 to 50%

inhibition at 0.5 µM [2]: 40 to 53%
inhibition at 2 µM [2]: 80 to 100%
Compound: O=C1CCC(N2Cc3c(CN4CCN(C(c5ccccc5)c5ccncc5)CC4)cccc3C2=S)C(=O)N1 (stereo not drawn) [GT-08204, 3-(4-((4-(phenyl(pyridin-4-yl)methyl)piperazin-1-yl)methyl)-1-thioxoisoindolin-2-yl)piperidine-2,6-dione]
IKZF 1 substrate protein remaining % (IKZF1; [7]): B (80%< substrate protein remaining %≤ 100%)
Wee1 substrate protein remaining % (WEE1; [7]): A (0% ≤ substrate protein remaining % ≤ 80%)
CK1α substrate protein remaining % (CK1α; [7]): B (80%< substrate protein remaining %≤ 100%)
IKZF3 substrate protein remaining % (IKZF3; [7]): B (80%< substrate protein remaining %≤ 100%)
IKZF2 substrate protein remaining % (IKZF2; [7]): B (80%< substrate protein remaining %≤ 100%)
GSPT1 substrate protein remaining % (GSPT1; [7]): B (80%< substrate protein remaining %≤ 100%)
inhibition at 0.01 µM [1]: 60 to 70%
inhibition at 0.5 µM [1]: 70 to 80%

inhibition at 0.5 µM [2]: 30 to 40%
inhibition at 2 µM [2]: 60 to 80%
Compound: O=C1CCC(N2Cc3c(CN4CCN(C(c5ccc(F)cc5)c5ccc(F)cc5)CC4)cccc3C2=S)C(=O)N1 (stereo not drawn) [GT-08202, 3-(4-((4-(bis(4-fluorophenyl)methyl)piperazin-1-yl)methyl)-1-thioxoisoindolin-2-yl)piperidine-2,6-dione]
inhibition at 0.01 µM [3]: 30 to 40%
inhibition at 0.5 µM [3]: 40 to 60%
IKZF 1 substrate protein remaining % (IKZF1; [7]): A (0% ≤ substrate protein remaining % ≤ 80%)
Wee1 substrate protein remaining % (WEE1; [7]): A (0% ≤ substrate protein remaining % ≤ 80%)
CK1α substrate protein remaining % (CK1α; [7]): B (80%< substrate protein remaining %≤ 100%)
IKZF3 substrate protein remaining % (IKZF3; [7]): A (0% ≤ substrate protein remaining % ≤ 80%)
IKZF2 substrate protein remaining % (IKZF2; [7]): A (0% ≤ substrate protein remaining % ≤ 80%)
GSPT1 substrate protein remaining % (GSPT1; [7]): A (0% ≤ substrate protein remaining % ≤ 80%)
inhibition at 0.01 µM [1]: 20 to 30%
inhibition at 0.5 µM [1]: 40 to 50%
